One data set addresses hDOR (Homo sapiens, UniProt P41143). Kind of data set: Radioligand binding assay (Eurofins Cerep), [3H]DADLE displacement.
Data set [1] can be described thus: Metabolic stability in rat liver microsomes. The format is in vitro ADME. The note with it: rat liver microsomes 1 mg/ml, substrate 1 μM, NADPH, 37° C. Summed up:
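Compounds at 1 μM were incubated in triplicate with rat liver microsomes (1 mg protein/ml) and 1 mM NADPH in 50 mM phosphate buffer pH 7.4 at 37 °C. Samples taken up to 60 min were analysed by UPLC-MS/MS. Intrinsic clearance came from substrate-depletion half-life and was scaled to hepatic CLint using 45 mg/g MPPGL and 40 g/kg liver.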

The target of data set [2] is T1, hMOR (Homo sapiens, UniProt P35372). Kind of data set: Cyclic adenosine 3′,5′-monophosphate (cAMP) assay in hMOR-CHO cells. The data set is classed as cell-based. The settings on record: N=1, control agonist DAMGO.
The target in data set [3] is T1, hMOR. Kind of data set: Radioligand binding assay (Eurofins Cerep), [3H]DAMGO displacement.
Another data set has as its target T2, α2A adrenergic receptor (Homo sapiens, UniProt P08913).
T2 construct: Eurofins Cerep (contract screening)
T2 sequence (P08913 1-465): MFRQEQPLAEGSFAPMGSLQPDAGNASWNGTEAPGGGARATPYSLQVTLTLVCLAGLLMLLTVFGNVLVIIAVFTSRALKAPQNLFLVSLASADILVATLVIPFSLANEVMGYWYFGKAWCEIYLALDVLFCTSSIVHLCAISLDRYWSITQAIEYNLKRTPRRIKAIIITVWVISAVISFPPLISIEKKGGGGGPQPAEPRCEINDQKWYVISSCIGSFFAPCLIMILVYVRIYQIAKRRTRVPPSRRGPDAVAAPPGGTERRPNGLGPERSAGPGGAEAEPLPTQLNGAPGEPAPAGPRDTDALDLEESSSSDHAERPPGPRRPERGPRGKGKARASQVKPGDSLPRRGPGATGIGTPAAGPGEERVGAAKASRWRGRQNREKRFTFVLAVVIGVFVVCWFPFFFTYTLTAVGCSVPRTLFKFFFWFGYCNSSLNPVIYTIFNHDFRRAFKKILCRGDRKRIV
Kind of data set: Radioligand binding assay (Eurofins Cerep), [3H]RX 821002 displacement. The note with it: Table A4, data summary #2.

A further data set concerns the target hKOR (Homo sapiens, UniProt P41145). Kind of data set: Radioligand binding assay (Eurofins Cerep), [3H]U69,593 displacement. The note with it: read-out: KOR Ki ± SEM.
Where [4] appears, read: Table A4, data summary #2, read-out: MOR Ki ± SEM.
Setting [5] is: Table A4, data summary #2, read-out: DOR Ki ± SEM.

Where two headings read alike, the source gives them in different places. A value given as a limit tells only on which side of the number the result lay.

Sequence of hKOR (P41145 whole entry): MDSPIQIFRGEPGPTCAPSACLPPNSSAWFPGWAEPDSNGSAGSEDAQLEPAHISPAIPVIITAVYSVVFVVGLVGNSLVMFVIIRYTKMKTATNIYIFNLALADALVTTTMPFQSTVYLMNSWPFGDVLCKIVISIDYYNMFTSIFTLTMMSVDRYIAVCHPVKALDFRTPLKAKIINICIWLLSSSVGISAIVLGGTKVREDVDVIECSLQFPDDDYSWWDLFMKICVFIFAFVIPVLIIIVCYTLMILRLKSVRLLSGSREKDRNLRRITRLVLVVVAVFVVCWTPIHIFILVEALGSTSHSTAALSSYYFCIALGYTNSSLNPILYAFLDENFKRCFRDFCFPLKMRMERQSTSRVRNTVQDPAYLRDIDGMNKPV
Sequence of hDOR (P41143 whole entry): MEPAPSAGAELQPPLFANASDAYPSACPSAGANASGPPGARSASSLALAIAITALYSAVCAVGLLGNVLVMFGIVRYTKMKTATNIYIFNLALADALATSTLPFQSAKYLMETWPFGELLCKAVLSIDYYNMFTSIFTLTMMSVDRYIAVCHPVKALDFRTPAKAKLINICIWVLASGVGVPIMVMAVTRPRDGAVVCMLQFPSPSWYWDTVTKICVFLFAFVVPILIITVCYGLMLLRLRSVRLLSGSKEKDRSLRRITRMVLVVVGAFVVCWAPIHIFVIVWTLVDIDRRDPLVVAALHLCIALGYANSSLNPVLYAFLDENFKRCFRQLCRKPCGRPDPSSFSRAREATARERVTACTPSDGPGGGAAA
T1 sequence (P35372 whole entry): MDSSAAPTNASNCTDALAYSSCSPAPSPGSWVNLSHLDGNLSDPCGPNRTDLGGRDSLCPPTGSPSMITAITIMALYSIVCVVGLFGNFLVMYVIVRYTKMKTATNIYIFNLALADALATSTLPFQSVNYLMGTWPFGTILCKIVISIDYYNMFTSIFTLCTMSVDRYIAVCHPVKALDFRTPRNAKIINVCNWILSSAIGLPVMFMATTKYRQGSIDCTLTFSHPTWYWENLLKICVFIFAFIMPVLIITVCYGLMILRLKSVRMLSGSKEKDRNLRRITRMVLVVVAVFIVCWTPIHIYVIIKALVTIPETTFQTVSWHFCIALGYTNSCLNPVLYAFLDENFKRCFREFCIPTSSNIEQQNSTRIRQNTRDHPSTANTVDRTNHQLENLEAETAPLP

The Ki is the equilibrium dissociation constant of an inhibitor or competing ligand from its target. On to `CC[C@@H]1CN2CCc3c([nH]c4cccc(OC)c34)[C@@H]2C[C@@H]1/C(=C\OC)C(=O)N(C)C1CCCCC1` [SUSM-523, (E)-N-cyclohexyl-2-((2S,3S,12bS)-3-ethyl-8-methoxy-1,2,3,4,6,7,12,12b-octahydroindolo[2,3-a]quinolizin-2-yl)-3-methoxy-N-methylacrylamide], for which the Ki at hDOR (DOR Ki ± SEM (nM), Table A1, data summary #1) turned out to be 6490 ± 962 nM; on hDOR (DOR Ki ± SEM (nM), Table A4, data summary #2), 8290 ± 1020 nM; on hMOR [3] (setting [4]), 49 ± 14 nM; at hMOR [3] (read-out: Ki at hMOR), 81.9 nM; on α2A adrenergic receptor (Alpha2A Ki ± SEM (nM)) it was 187 ± 29 nM; on hKOR (Table A1, data summary #1), 2640 ± 685 nM. In addition, the Ki on hKOR (Table A4, data summary #2) amounted to 1950 ± 611 nM. For the same compound, the “RLM stability” value in data set [1] is on record as below 5 min. Moreover, the “functional activity in cAMP assay” value at hMOR [2] is “antagonists”; on hMOR [2] (listed as SUSM 523), “antagonist”.
`CC[C@@H]1CN2CC[C@@]3(O)C(=Nc4cccc(OC)c43)[C@@H]2C[C@@H]1/C(=C\OC)C(=O)N(C)C` [SUSM-524, (E)-2-((2S,3S,7aS,12bS)-3-ethyl-7a-hydroxy-8-methoxy-1,2,3,4,6,7,7a,12b-octahydroindolo[2,3-a]quinolizin-2-yl)-3-methoxy-N,N-dimethylacrylamide]: the Ki at hDOR (setting [5]) was 802 ± 212 nM; on hMOR [3] (setting [4]) it was 90 ± 14 nM; at hMOR [3] (read-out: Ki at hMOR), 110 nM; on α2A adrenergic receptor (read-out: Alpha2A Ki ± SEM) it was above 10000 nM; on hKOR (Table A1, data summary #1), 9150 ± 1100 nM; at hKOR (Table A4, data summary #2), 9150 ± 1100 nM. In addition, in data set [1], the “RLM stability” value is given as below 5 min. Also, the “functional activity in cAMP assay” value was “agonist activity” on hMOR [2] and “agonist” at hMOR [2] (listed as SUSM 524). Moreover, on hMOR [3], the “potency at MOR relative to SUSM-501” value is listed as 4 fold.
As to `CC[C@@H]1CN2CCc3c([nH]c4cccc(OC)c34)[C@@H]2C[C@@H]1/C(=C\OC)C(=O)N(C)C1CCCC1`, the Ki at hDOR (Table A1, data summary #1, read-out: DOR Ki ± SEM) was determined as 9750 ± 452 nM; at hDOR (setting [5]), 6930 ± 1340 nM; on hMOR [3] (setting [4]), 68 ± 7 nM; at hMOR [3] (read-out: Ki at hMOR) it was 67.8 nM; at α2A adrenergic receptor (read-out: Alpha2A Ki ± SEM), 510 ± 82 nM; on hKOR (Table A1, data summary #1), 4600 ± 132 nM. The Ki at hKOR (Table A4, data summary #2) came out at 4600 ± 132 nM. In addition, the “RLM stability” value in data set [1] is below 5 min. The “functional activity in cAMP assay” value on hMOR [2] is “antagonists”; at hMOR [2] (listed as SUSM 522) it was “antagonist”.

Values taken from patent US20260234147A1 (priority 2023, published 2026).
